Assays:
[1] = target: T1, cis-zeatin O-glucosyltransferase (cis-ZOG1) (Zea mays, UniProt Q93XP7); assay: Enzyme assay of recombinant cis-ZOG1 with cytokinin substrates and UDPG, products analysed by HPLC; format: biochemical; details: recombinant protein, UDPG as glycosyl donor, HPLC analysis
T1 construct: His7 (seven histidine residues, from the vector); made in house; host or cells: E. coli XL1 Blue
T1 sequence (Q93XP7 1-467): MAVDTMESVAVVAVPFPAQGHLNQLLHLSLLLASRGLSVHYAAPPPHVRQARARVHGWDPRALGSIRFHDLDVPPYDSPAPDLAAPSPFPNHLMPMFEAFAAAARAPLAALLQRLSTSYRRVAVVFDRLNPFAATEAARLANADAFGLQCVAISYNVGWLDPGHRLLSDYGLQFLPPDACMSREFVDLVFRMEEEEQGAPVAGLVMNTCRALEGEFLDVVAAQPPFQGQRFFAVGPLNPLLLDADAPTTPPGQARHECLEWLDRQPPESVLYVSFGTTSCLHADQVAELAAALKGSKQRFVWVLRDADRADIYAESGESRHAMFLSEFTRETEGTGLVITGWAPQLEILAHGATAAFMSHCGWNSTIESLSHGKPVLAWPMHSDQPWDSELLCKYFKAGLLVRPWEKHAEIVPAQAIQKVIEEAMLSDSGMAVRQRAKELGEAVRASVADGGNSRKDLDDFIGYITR
Protocol: (§1) For FIG. 2B, 200 μL of supernatant obtained from cell culture was incubated with approximately 1 nmol of labeled zeatin and UDPG for 2 hours. For FIG. 2C, Approximately 0.4 nmole of reaction product obtained from reactions similar to FIG. 2B was incubated with β-glucosidase for 4 hours to reconvert the product to zeatin.
3. Isolation of Recombinant Proteins. To obtain recombinant proteins, the ORF of the selected cDNA was amplified by PCR using primers (SEQ ID NOS: 9 and 10) that generated products having an NcoI site at the 5′ and a XbaI site at the 3′ terminus. The PCR products were digested with NcoI and XbaI restriction enzymes and ligated into a p Trc 99A expression vector (Pharmacia) modified to contain seven histidine residues (CAT or CAC), and transformed into the XL1 Blue cell line. Colonies were selected on AMP-LB plates. […] After 4 hours cells were collected and frozen at −80 C overnight. Cells were resuspended in 0.5 mL of 0.2 M Tris pH 7.5 containing 1 mg/mL of lysozyme. Samples were incubated on ice for 30 minutes, frozen for 10 minutes at −80 C, thawed in cold water, and then DNAase (1 μg/10 μl supernatant) was added. After 10 minutes at room temperature, the samples were sonicated with four 15-second bursts to release proteins from cells. Soluble proteins were collected after centrifugation and used for enzyme assays.
4. Enzyme assays and analysis of reaction products. Enzyme activity was determined as reported previously (Dixon et al., Plant Physiol. 90:1316–1321, 1989). Briefly, a specified amount of recombinant protein, ^14C-labeled cis-zeatin (specific activity of 24 mCi/mmol), and a glycosyl donor (4 mM of UDPG) were incubated in MgCl2 (0.07 M) in 0.17 M Tris, pH 8.0. Reaction products were then analyzed by HPLC (Dixon et al., Plant Physiol. 90:1316–1321, 1989).

β-glucosidase = details: reaction product incubated with β-glucosidase for 4 hours
Protocol: as §1

Molecule | use as substrate by the recombinant enzyme (O-glucosylation) [1] | re-conversion to cis-zeatin by β-glucosidase (β-glucosidase)
C/C(=C/CNc1ncnc2nc[nH]c12)CO [cis-zeatin] | formation of O-glucosyl-cis-zeatin from cis-zeatin | 
CC(CO)CCNc1ncnc2c1ncn2[C@@H]1O[C@H](CO)[C@@H](O)[C@H]1O (stereo partly drawn) [ribosyldihydrozeatin] | does not use | 
cis-zeatin O-glucoside |  | re-conversion of the reaction product to cis-zeatin by β-glucosidase

Further lines, with some results ahead:

use as substrate by the recombinant enzyme (O-glucosylation) [1] | Molecule | re-conversion to cis-zeatin by β-glucosidase (β-glucosidase)
does not use | C/C(=C\CNc1ncnc2c1ncn2[C@@H]1O[C@H](CO)[C@@H](O)[C@H]1O)CO (relative stereo) [trans-ribosylzeatin] | 
does not use | CC(CO)CCNc1ncnc2nc[nH]c12 (stereo not drawn) [dihydrozeatin] | 
does not use | C/C(=C\CNc1ncnc2[nH]cnc12)CO [trans-zeatin] | 
